In PubChem BioAssay (NCI):
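Where inhibition never reached the appropriate level, the endpoint shown equals the highest concentration tested. Otherwise, values were interpolated linearly from a five-concentration, 48-hour dose response in 96-well plates. At the TGI there is no net growth.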

What was measured:
Assay in all cases: growth of human tumour cells (NCI), 48 h
[1] = system: SNB-75 CNS
[2] = system: MCF7 breast
[3] = system: MDA-MB-231 breast
[4] = system: SK-OV-3 ovarian
[5] = system: COLO 205 colon
[6] = system: SNB-19 CNS
[7] = system: HL-60(TB) leukemia
[8] = system: A549 NSCLC
[9] = system: M14 melanoma
[10] = system: MALME-3M melanoma
[11] = system: RPMI-8226 leukemia
[12] = system: SK-MEL-2 melanoma
[13] = system: NCI-H522 lung
[14] = system: HOP-92 NSCLC
[15] = system: SR leukemia
[16] = system: OVCAR-3 ovarian
[17] = system: OVCAR-5 ovarian
[18] = system: NCI/ADR-RES ovarian
[19] = system: NCI-H23 lung
[20] = system: MDA-N
[21] = system: SK-MEL-28 melanoma
[22] = system: A498 renal
[23] = system: SK-MEL-5 melanoma
[24] = system: UO-31 renal
[25] = system: NCI-H226 lung
[26] = system: HCT-116 colon
[27] = system: MOLT-4 leukemia
[28] = system: SW-620 colon
[29] = system: CCRF-CEM leukemia
[30] = system: SN12C renal
[31] = system: TK-10 renal
[32] = system: NCI-H460 lung
[33] = system: 786-0 renal
[34] = system: CAKI-1 renal
[35] = system: LOX IMVI melanoma
[36] = system: SF-539 CNS
[37] = system: HCT-15 colon
[38] = system: BT-549 breast
[39] = system: K-562 leukemia
[40] = system: MDA-MB-435
[41] = system: UACC-257 melanoma
[42] = system: SF-295 CNS
[43] = system: OVCAR-8 ovarian
[44] = system: RXF 393 renal
[45] = system: HS 578T breast
[46] = system: T-47D breast
[47] = system: KM12 colon
[48] = system: HT29 colon
[49] = system: OVCAR-4 ovarian
[50] = system: PC-3 prostate
[51] = system: DU-145 prostate
[52] = system: IGROV1 ovarian
[53] = system: EKVX NSCLC
[54] = system: UACC-62 melanoma
[55] = system: HOP-62 NSCLC
[56] = system: SF-268 CNS
[57] = system: ACHN renal
[58] = system: U251 CNS
[59] = system: HCC-2998 colon

OC1C=C2C3CN(Cc4cc5c(cc43)OCO5)[C@H]2C[C@@H]1O (stereo partly specified)
TGI [1]: 4.56 µM
TGI [2]: 22.2 µM
TGI [3]: 68.5 µM
TGI [4]: > 100 µM
TGI [5]: > 100 µM
TGI [6]: 76.1 µM
TGI [7]: 19.3 µM
TGI [8]: > 100 µM
TGI [9]: 25 µM
TGI [10]: > 100 µM
TGI [11]: > 100 µM
TGI [12]: 11.9 µM
TGI [13]: > 100 µM
TGI [14]: 46.9 µM
TGI [15]: > 100 µM
TGI [16]: > 100 µM
TGI [17]: 73.3 µM
TGI [18]: 75.6 µM
TGI [19]: 67.4 µM
TGI [20]: 37.3 µM
TGI [21]: > 100 µM
TGI [22]: 39.9 µM
TGI [23]: 16.4 µM
TGI [24]: 71.4 µM
TGI [25]: > 100 µM
TGI [26]: 25.1 µM
TGI [27]: > 100 µM
TGI [28]: > 100 µM
TGI [29]: 7.04 µM
TGI [30]: > 100 µM
TGI [31]: 39.3 µM
TGI [32]: 13.2 µM
TGI [33]: 36.3 µM
TGI [34]: 29.7 µM
TGI [35]: > 100 µM
TGI [36]: > 100 µM
TGI [37]: 34.1 µM
TGI [38]: 14.7 µM
TGI [39]: > 100 µM
TGI [40]: 24.7 µM
TGI [41]: 9.29 µM
TGI [42]: > 100 µM
TGI [43]: 91.2 µM
TGI [44]: 21.4 µM
TGI [45]: > 100 µM
TGI [46]: 6.54 µM
TGI [47]: 43.9 µM
TGI [48]: 46.3 µM
TGI [49]: 25.9 µM
TGI [50]: 22.6 µM
TGI [51]: 71.2 µM
TGI [52]: > 100 µM
TGI [53]: 28.6 µM
TGI [54]: 68.4 µM
TGI [55]: > 100 µM
TGI [56]: > 100 µM
TGI [57]: 33.1 µM
TGI [58]: 50.4 µM

C[C@]12CC[C@@H]3c4ccc(OCC(=O)O)cc4CC[C@H]3[C@@H]1CCC2=O
TGI [1]: > 100 µM
TGI [2]: > 100 µM
TGI [3]: > 100 µM
TGI [4]: > 100 µM
TGI [5]: > 100 µM
TGI [6]: > 100 µM
TGI [7]: 0.317 µM
TGI [8]: > 100 µM
TGI [9]: > 100 µM
TGI [10]: > 100 µM
TGI [11]: > 100 µM
TGI [12]: > 100 µM
TGI [13]: > 100 µM
TGI [14]: > 100 µM
TGI [15]: > 100 µM
TGI [16]: > 100 µM
TGI [17]: > 100 µM
TGI [18]: > 100 µM
TGI [19]: > 100 µM
TGI [20]: > 100 µM
TGI [21]: > 100 µM
TGI [22]: > 100 µM
TGI [23]: > 100 µM
TGI [24]: > 100 µM
TGI [25]: > 100 µM
TGI [26]: > 100 µM
TGI [27]: 64.4 µM
TGI [28]: > 100 µM
TGI [29]: 4.48 µM
TGI [30]: > 100 µM
TGI [31]: > 100 µM
TGI [32]: > 100 µM
TGI [33]: > 100 µM
TGI [34]: > 100 µM
TGI [35]: > 100 µM
TGI [36]: > 100 µM
TGI [37]: > 100 µM
TGI [38]: > 100 µM
TGI [40]: > 100 µM
TGI [41]: > 100 µM
TGI [42]: > 100 µM
TGI [43]: > 100 µM
TGI [44]: > 100 µM
TGI [45]: > 100 µM
TGI [46]: > 100 µM
TGI [47]: > 100 µM
TGI [48]: > 100 µM
TGI [49]: > 100 µM
TGI [50]: > 100 µM
TGI [51]: > 100 µM
TGI [52]: > 100 µM
TGI [53]: > 100 µM
TGI [54]: > 100 µM
TGI [55]: > 100 µM
TGI [56]: > 100 µM
TGI [57]: > 100 µM
TGI [58]: > 100 µM

CC(C)CC(=O)OC[n+]1cccc(-c2c(COC(=O)NC(C)C)c(COC(=O)NC(C)C)c3n2CCC3)c1
TGI [1]: > 100 µM
TGI [59]: > 100 µM
TGI [2]: > 100 µM
TGI [3]: > 100 µM
TGI [4]: > 100 µM
TGI [5]: > 100 µM
TGI [6]: > 100 µM
TGI [8]: > 100 µM
TGI [9]: > 100 µM
TGI [10]: > 100 µM
TGI [11]: > 100 µM
TGI [12]: > 100 µM
TGI [13]: 49.2 µM
TGI [14]: 76.9 µM
TGI [15]: > 100 µM
TGI [16]: > 100 µM
TGI [17]: > 100 µM
TGI [18]: > 100 µM
TGI [19]: > 100 µM
TGI [20]: > 100 µM
TGI [21]: > 100 µM
TGI [22]: 59 µM
TGI [23]: > 100 µM
TGI [24]: 91.6 µM
TGI [25]: > 100 µM
TGI [26]: > 100 µM
TGI [27]: > 100 µM
TGI [28]: > 100 µM
TGI [29]: > 100 µM
TGI [30]: > 100 µM
TGI [31]: > 100 µM
TGI [32]: > 100 µM
TGI [33]: 97.7 µM
TGI [34]: 73.9 µM
TGI [35]: > 100 µM
TGI [36]: > 100 µM
TGI [37]: > 100 µM
TGI [38]: > 100 µM
TGI [39]: > 100 µM
TGI [40]: > 100 µM
TGI [41]: > 100 µM
TGI [42]: > 100 µM
TGI [43]: > 100 µM
TGI [44]: > 100 µM
TGI [45]: > 100 µM
TGI [46]: > 100 µM
TGI [47]: > 100 µM
TGI [48]: > 100 µM
TGI [49]: > 100 µM
TGI [50]: > 100 µM
TGI [51]: 79.7 µM
TGI [52]: > 100 µM
TGI [53]: > 100 µM
TGI [54]: > 100 µM
TGI [55]: > 100 µM
TGI [56]: > 100 µM
TGI [57]: > 100 µM
TGI [58]: > 100 µM

O=C1NC(=O)[C@H]2C3C=CC([C@@H]12)[C@@H]1C(=O)NC(=O)[C@H]31
TGI [59]: > 100 µM
TGI [2]: > 100 µM
TGI [3]: > 100 µM
TGI [5]: > 100 µM
TGI [6]: > 100 µM
TGI [7]: > 100 µM
TGI [8]: > 100 µM
TGI [9]: > 100 µM
TGI [10]: > 100 µM
TGI [11]: > 100 µM
TGI [12]: > 100 µM
TGI [13]: > 100 µM
TGI [14]: > 100 µM
TGI [15]: > 100 µM
TGI [16]: > 100 µM
TGI [17]: > 100 µM
TGI [18]: > 100 µM
TGI [19]: > 100 µM
TGI [20]: > 100 µM
TGI [21]: > 100 µM
TGI [23]: > 100 µM
TGI [24]: > 100 µM
TGI [25]: > 100 µM
TGI [26]: > 100 µM
TGI [27]: > 100 µM
TGI [28]: > 100 µM
TGI [29]: > 100 µM
TGI [30]: > 100 µM
TGI [31]: > 100 µM
TGI [32]: > 100 µM
TGI [33]: > 100 µM
TGI [34]: > 100 µM
TGI [35]: > 100 µM
TGI [36]: > 100 µM
TGI [37]: > 100 µM
TGI [38]: > 100 µM
TGI [39]: > 100 µM
TGI [40]: > 100 µM
TGI [41]: > 100 µM
TGI [42]: > 100 µM
TGI [43]: > 100 µM
TGI [44]: > 100 µM
TGI [45]: > 100 µM
TGI [46]: > 100 µM
TGI [50]: > 100 µM
TGI [51]: > 100 µM
TGI [52]: > 100 µM
TGI [53]: > 100 µM
TGI [54]: > 100 µM
TGI [55]: > 100 µM
TGI [56]: > 100 µM
TGI [57]: > 100 µM
TGI [58]: > 100 µM
